# Source: patent US12723063B2, “GIPR-agonist compounds” (Eli Lilly and Company, priority 2019, dated 2026)
# *1 amine or outer side, *2 acyl side, *3 side chain or, on linkers, in order; H or OH if unused. Where a SMILES comes first, the peptide text is derived from it. Side-chain parts run from the residue outwards. [ ]: non-standard residue; d: D form. The star is where a group is joined. C20 diacid = O=C(O)CCCCCCCCCCCCCCCCCCC(=O)*; αMePhe(2-F) = C[C@](N)(Cc1ccccc1F)C(=O)O; γGlu = O=C(O)[C@H](CCC(=O)[*:2])N[*:1]; 4Pal = N[C@@H](Cc1ccncc1)C(=O)O; αMeL = CC(C)C[C@](C)(N)C(=O)O; Iva = CC[C@](C)(N)C(=O)O; AEEA = NCCOCCOCC(=O)O; Aib = CC(C)(N)C(=O)O
# Key:
# human GcgR = target: T1, human GcgR (Homo sapiens, UniProt P47871); test: [125I]-Glucagon binding, SPA with WGA beads, 0.1% bacitracin; settings: geometric mean, read-out: hGcgR Ki
# T1 construct: expressed in transfected cells; crude membranes
# T1 sequence (P47871 26-477): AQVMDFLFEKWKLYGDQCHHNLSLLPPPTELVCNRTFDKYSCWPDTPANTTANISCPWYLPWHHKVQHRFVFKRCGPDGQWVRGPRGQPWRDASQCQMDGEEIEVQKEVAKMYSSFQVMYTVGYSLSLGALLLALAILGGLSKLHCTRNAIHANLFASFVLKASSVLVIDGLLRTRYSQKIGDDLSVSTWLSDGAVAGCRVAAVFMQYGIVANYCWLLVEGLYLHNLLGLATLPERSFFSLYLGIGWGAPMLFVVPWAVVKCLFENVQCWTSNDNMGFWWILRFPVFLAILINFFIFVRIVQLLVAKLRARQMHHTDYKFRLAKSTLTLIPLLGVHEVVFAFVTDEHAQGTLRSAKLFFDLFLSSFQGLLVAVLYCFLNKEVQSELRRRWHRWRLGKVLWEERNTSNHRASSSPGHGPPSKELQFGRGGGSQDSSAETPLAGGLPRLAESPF
# Experimental: (§1) Stably transfected cell lines are prepared by subcloning receptor cDNA into a pcDNA3 expression plasmid and transfected into human embryonic kidney (HEK) 293 (hGcgR and hGLP-1R) or Chinese Hamster Ovary (CHO) (hGIPR) cells followed by selection with Geneticin (hGLP-1R and hGIPR) or hygromycin B (hGcgR).
# (§2) Two methods are used for the preparation of crude cell membranes.
# (§3) Method 1: Frozen cell pellets are lysed on ice in hypotonic buffer containing 50 mM Tris HCl, pH 7.5, and Roche Complete™ Protease Inhibitors with EDTA. The cell suspension is disrupted using a glass Potter-Elvehjem homogenizer fitted with a Teflon® pestle for 25 strokes. The homogenate is centrifuged at 4° C. at 1100× g for 10 minutes. The supernatant is collected and stored on ice while the pellets are resuspended in homogenization buffer and rehomogenized as described above. The homogenate is centrifuged at 1100× g for 10 minutes. The second supernatant is combined with the first supernatant and centrifuged at 35000× g for 1 hour at 4° C. The resulting membrane pellet is resuspended in homogenization buffer containing protease inhibitors at approximately 1 to 3 mg/mL, quick frozen in liquid nitrogen and stored as aliquots in a −80° C. freezer until use.
# (§4) Method 2: Frozen cell pellets are lysed on ice in hypotonic buffer containing 50 mM Tris HCl, pH 7.5, 1 mM MgCl2, Roche Complete™ EDTA-free Protease Inhibitors and 25 units/mL DNAse I (Invitrogen). The cell suspension is disrupted using a glass Potter-Elvehjem homogenizer fitted with a Teflon® pestle for 20 to 25 strokes. The homogenate is centrifuged at 4° C. at 1800× g for 15 minutes. The supernatant is collected and stored on ice while the pellets are resuspended in homogenization buffer (without DNAse I) and rehomogenized as described above. The homogenate is centrifuged at 1800× g for 15 minutes. The second supernatant is combined with the first supernatant and centrifuged an additional time at 1800× g for 15 minutes. The overall supernatant is then centrifuged at 25000× g for 30 minutes at 4° C. The resulting membrane pellet is resuspended in homogenization buffer (without DNAse I) containing protease inhibitors at approximately 1 to 3 mg/mL and stored as aliquots in a −80° C. freezer until use.
# The human Geg receptor binding assays are performed using a Scintillation Proximity Assay (SPA) format with wheat germ agglutinin (WGA) beads (Perkin Elmer). The binding buffer contains 25 mM 4-(2-hydroxyethyl)-1-piperazineethanesulfonic acid (HEPES), pH 7.4, 2.5 mM CaCl2), 1 mM MgCl2, 0.1% (w/v) bacitracin (Research Products), 0.003% (w/v) Polyoxyethylenesorbitan monolaurate (TWEEN®-20), and Roche Complete™ Protease Inhibitors without EDTA. Peptides and Gcg are thawed and 3-fold serially diluted in 100% DMSO (10 point concentration response curves). Next, 5 μL serially diluted compound or DMSO is transferred into Corning® 3632 clear bottom assay plates containing 45 μL assay binding buffer or unlabeled Gcg control (non-specific binding or NSB, at 1 μM final). […] Plates are sealed and mixed on a plate shaker (setting 6) for 1 minute and read with a PerkinElmer Trilux MicroBeta® scintillation counter after 12 hours of incubation/settling time at room temperature.
# (§5) Data are analyzed using four-parameter (curve maximum, curve minimum, IC50, Hill slope) nonlinear regression routines (Genedata Screener, version 12.0.4, Genedata AG, Basal, Switzerland). […] Values for Ki are reported as the geometric mean, with error expressed as the standard error of the mean (SEM) and n is equal to the number of independent replicates (determined in assays performed on different days). […] SEM is only calculated when […] or greater. Means are expressed as geometric means with the standard error of the mean (SEM) and the number of replicates (n) indicated in parentheses.
# human GIPR = target: T2, human GIPR (Homo sapiens, UniProt P48546); test: [125I]-GIP binding, SPA with WGA beads, 0.1% bacitracin; settings: geometric mean, read-out: hGIPR Ki
# T2 construct: expressed in transfected cells; crude membranes
# T2 sequence (P48546 22-466): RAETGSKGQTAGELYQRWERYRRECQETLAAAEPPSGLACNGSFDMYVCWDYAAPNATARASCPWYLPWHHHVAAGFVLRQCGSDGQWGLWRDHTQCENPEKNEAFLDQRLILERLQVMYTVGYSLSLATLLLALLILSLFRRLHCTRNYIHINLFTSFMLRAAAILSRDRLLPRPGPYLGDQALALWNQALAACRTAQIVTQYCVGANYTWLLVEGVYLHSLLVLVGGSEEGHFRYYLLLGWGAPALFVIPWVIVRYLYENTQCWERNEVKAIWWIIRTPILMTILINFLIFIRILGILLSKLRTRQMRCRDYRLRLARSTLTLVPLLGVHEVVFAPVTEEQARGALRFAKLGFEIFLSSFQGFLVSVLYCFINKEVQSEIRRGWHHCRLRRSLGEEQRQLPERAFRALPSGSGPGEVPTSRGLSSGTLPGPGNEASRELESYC
# Experimental: as §1, §2, §3, §4
# The binding buffer contains 25 mM HEPES, pH 7.4, 2.5 mM CaCl2), 1 mM MgCl2, 0.1% (w/v) bacitracin, 0.003% (w/v) TWEEN®-20, and Roche Complete™ Protease Inhibitors without EDTA. […] Plates are sealed and mixed on a plate shaker (setting 6) for 1 minute and read with a PerkinElmer Trilux MicroBeta® scintillation counter after 2.5 to 12 hours of incubation/settling time at room temperature.
# as §5
SMILES,Ki (human GcgR),Ki (human GIPR)
CC[C@H](C)[C@H](NC(=O)[C@H](CO)NC(=O)[C@H](Cc1ccc(O)cc1)NC(=O)[C@H](CC(=O)O)NC(=O)[C@H](CO)NC(=O)[C@@H](NC(=O)[C@](C)(Cc1ccccc1F)NC(=O)[C@@H](NC(=O)CNC(=O)[C@H](CCC(=O)O)NC(=O)C(C)(C)NC(=O)[C@@H](N)Cc1ccc(O)cc1)[C@@H](C)O)[C@@H](C)CC)C(=O)N[C@@H](C)C(=O)N[C@@H](CC(C)C)C(=O)N[C@@H](CC(=O)O)C(=O)N[C@@H](CCCCN)C(=O)N[C@H](C(=O)N[C@@H](Cc1c[nH]cn1)C(=O)N[C@@H](CCC(N)=O)C(=O)NC(C)(C)C(=O)N[C@@H](CCC(=O)O)C(=O)N[C@@H](Cc1ccccc1)C(=O)N[C@H](C(=O)N[C@@H](CC(N)=O)C(=O)N[C@@H](Cc1ccc(O)cc1)C(=O)N[C@@H](CCCCNC(=O)COCCOCCNC(=O)COCCOCCNC(=O)CC[C@H](NC(=O)CCCCCCCCCCCCCCCCCCC(=O)O)C(=O)O)C(=O)N[C@@H](CC(C)C)C(=O)N[C@@H](C)C(=O)NCC(=O)NCC(=O)N1CCC[C@H]1C(=O)N[C@@H](CO)C(=O)N[C@@H](CO)C(=O)NCC(=O)N[C@@H](C)C(=O)N1CCC[C@H]1C(=O)N1CCC[C@H]1C(=O)N1CCC[C@H]1C(=O)N[C@@H](CO)C(N)=O)C(C)C)[C@@H](C)CC [Example 98] (H-Y[Aib]EGT[αMePhe(2-F)]ISDYSIALDKIHQ[Aib]EFVNYK([AEEA-AEEA-γGlu-C20 diacid])LAGGPSSGAPPPS-NH2),38.4 nM,0.0195 nM
CC[C@H](C)[C@H](NC(=O)[C@H](CO)NC(=O)[C@H](Cc1ccc(O)cc1)NC(=O)[C@H](CC(=O)O)NC(=O)[C@H](CO)NC(=O)[C@@H](NC(=O)[C@](C)(CC)NC(=O)[C@@H](NC(=O)CNC(=O)[C@H](CCC(=O)O)NC(=O)C(C)(C)NC(=O)[C@@H](N)Cc1ccc(O)cc1)[C@@H](C)O)[C@@H](C)CC)C(=O)N[C@@](C)(CC(C)C)C(=O)N[C@@H](CC(C)C)C(=O)N[C@@H](CC(=O)O)C(=O)N[C@@H](CCCCN)C(=O)N[C@@H](CCCCNC(=O)COCCOCCNC(=O)COCCOCCNC(=O)CC[C@H](NC(=O)CCCCCCCCCCCCCCCCCCC(=O)O)C(=O)O)C(=O)N[C@@H](Cc1c[nH]cn1)C(=O)N[C@@H](CCC(N)=O)C(=O)NC(C)(C)C(=O)N[C@@H](CC(=O)O)C(=O)N[C@@H](Cc1ccccc1)C(=O)N[C@H](C(=O)N[C@@H](CCC(=O)O)C(=O)N[C@@H](Cc1ccncc1)C(=O)N[C@@H](CC(C)C)C(=O)N[C@@H](CC(C)C)C(=O)N[C@@H](CCC(=O)O)C(=O)NCC(=O)NCC(=O)N1CCC[C@H]1C(=O)N[C@@H](CO)C(=O)N[C@@H](CO)C(=O)NCC(=O)N[C@@H](C)C(=O)N1CCC[C@H]1C(=O)N1CCC[C@H]1C(=O)N1CCC[C@H]1C(=O)N[C@@H](CO)C(N)=O)C(C)C [Example 74] (H-Y[Aib]EGT[Iva]ISDYSI[αMeL]LDKK([AEEA-AEEA-γGlu-C20 diacid])HQ[Aib]DFVE[4Pal]LLEGGPSSGAPPPS-NH2),511 nM,0.0287 nM
CC[C@H](C)[C@H](NC(=O)[C@H](CO)NC(=O)[C@H](Cc1ccc(O)cc1)NC(=O)[C@H](CC(=O)O)NC(=O)[C@H](CO)NC(=O)[C@@H](NC(=O)[C@H](Cc1ccccc1)NC(=O)[C@@H](NC(=O)CNC(=O)[C@H](CCC(=O)O)NC(=O)[C@@H](C)NC(=O)[C@@H](N)Cc1ccc(O)cc1)[C@@H](C)O)[C@@H](C)CC)C(=O)N[C@@H](CC(C)C)C(=O)N[C@@H](CC(C)C)C(=O)N[C@@H](CC(=O)O)C(=O)N[C@@H](CCCCN)C(=O)N[C@@H](CCCCNC(=O)COCCOCCNC(=O)COCCOCCNC(=O)CC[C@H](NC(=O)CCCCCCCCCCCCCCCCCCC(=O)O)C(=O)O)C(=O)N[C@@H](Cc1c[nH]cn1)C(=O)N[C@@H](CCC(N)=O)C(=O)N[C@@H](CCC(N)=O)C(=O)N[C@@H](CC(=O)O)C(=O)N[C@@H](Cc1ccccc1)C(=O)N[C@H](C(=O)N[C@@H](CCC(=O)O)C(=O)N[C@@H](Cc1c[nH]c2ccccc12)C(=O)N[C@@H](CC(C)C)C(=O)N[C@@H](CC(C)C)C(=O)N[C@@H](C)C(=O)N[C@@H](CCC(N)=O)C(=O)NCC(=O)N1CCC[C@H]1C(=O)N[C@@H](CO)C(=O)N[C@@H](CO)C(=O)NCC(=O)N[C@@H](C)C(=O)N1CCC[C@H]1C(=O)N1CCC[C@H]1C(=O)N1CCC[C@H]1C(=O)N[C@@H](CO)C(N)=O)C(C)C [Example 14] (H-Y[dA]EGTFISDYSILLDKK([AEEA-AEEA-γGlu-C20 diacid])HQQDFVEWLLAQGPSSGAPPPS-NH2),> 230 nM,0.46 nM
CC[C@H](C)[C@H](NC(=O)[C@H](CCCCN)NC(=O)[C@H](CC(=O)O)NC(=O)[C@H](CC(C)C)NC(=O)[C@](C)(CC(C)C)NC(=O)[C@@H](NC(=O)[C@H](CO)NC(=O)[C@H](Cc1ccc(O)cc1)NC(=O)[C@H](CC(=O)O)NC(=O)[C@H](CO)NC(=O)[C@@H](NC(=O)[C@H](Cc1ccccc1)NC(=O)[C@@H](NC(=O)CNC(=O)[C@H](CCC(=O)O)NC(=O)C(C)(C)NC(=O)[C@@H](N)Cc1ccc(O)cc1)[C@@H](C)O)[C@@H](C)CC)[C@@H](C)CC)C(=O)N[C@@H](Cc1c[nH]cn1)C(=O)N[C@@H](CCC(N)=O)C(=O)NC(C)(C)C(=O)N[C@@H](CC(=O)O)C(=O)N[C@@H](Cc1ccccc1)C(=O)N[C@H](C(=O)N[C@@H](CCC(=O)O)C(=O)N[C@@H](Cc1ccc(O)cc1)C(=O)N[C@@H](CCCCNC(=O)COCCOCCNC(=O)COCCOCCNC(=O)CC[C@H](NC(=O)CCCCCCCCCCCCCCCCCCC(=O)O)C(=O)O)C(=O)N[C@@H](CC(C)C)C(=O)N[C@@H](CCC(=O)O)C(=O)N[C@@H](C)C(=O)NCC(=O)N1CCC[C@H]1C(=O)N[C@@H](CO)C(=O)N[C@@H](CO)C(=O)NCC(=O)N[C@@H](C)C(=O)N1CCC[C@H]1C(=O)N1CCC[C@H]1C(=O)N1CCC[C@H]1C(=O)N[C@@H](CO)C(N)=O)C(C)C [Example 117] (H-Y[Aib]EGTFISDYSI[αMeL]LDKIHQ[Aib]DFVEYK([AEEA-AEEA-γGlu-C20 diacid])LEAGPSSGAPPPS-NH2),685 nM,0.0722 nM
